Test results: US20150297637A1, “ACTIVATED CARBON COMPRISING AN ADSORBED IODIDE SALT IN A METHOD FOR TREATING CHRONIC BRONCHITIS” (PHARMALUNDENSIS AB, priority 2012, published 2015)
Entries after “also recorded” stand apart in the source; their conditions may differ.

Tested on: cough and sputum production in a patient with chronic bronchitis
Assay: Use of KI-impregnated charcoal for treating a patient with chronic bronchitis
Assay type: in vivo, human
Conditions: one patient; capsule with 10 mg KI per day for one month
From the text: A person has for several years experienced increasing problems with cough and mucous production for long periods. They were diagnosed as suffering from chronic bronchitis. They were prescribed standard treatment including corticosteroids, anti-cholinergics, beta2-stimulants and mucolytics such as acetylcysteine.
Since the chronic bronchitis caused considerable inconvenience, they examined alternative ways to reduce the symptoms.
To clarify if the improvement of the chronic bronchitis by KI-impregnated activated charcoal was caused by iodide, […] then took a capsule with 10 mg (which amount is considerably higher than the amount of iodide in the KI-impregnated activated charcoal, 300 mg×1.62%=4.9 mg) KI per day for one month.
Finally, they once again took 300 mg activated charcoal impregnated with 1.6% KI in a 00 vegetable capsule for one month.

For [I-].[K+] [KI, Potassium iodide], the “Cough and sputum production” value was “did not reduce the cough or sputum production at all; also recorded: no improvement of cough or sputum production”.
